Reference: US20240060999A1, “BLOOD COAGULATION INSPECTION METHOD” (FUJIMORI KOGYO CO., LTD, priority 2020, published 2024)

Tested on: whole blood
Assay: ROTEM whole blood coagulation with rabbit brain-derived tissue thromboplastin (TP) + Ca 12 mM (CTI 20 μg/mL, PKSI-527 40 μM where stated)
Type: cell-based
[1] = Ex11, TP 16.6 μg/mL+Ca+CTI+PKSI-527, heparan sulfate 1 μg/mL, no rTM
[2] = Ex11, TP 16.6 μg/mL+Ca+CTI+PKSI-527, heparan sulfate 1 μg/mL, rTM 50 μM (title: 50 nM)
[3] = Ex11, TP 16.6 μg/mL+Ca+CTI+PKSI-527, heparan sulfate 3 μg/mL, no rTM
[4] = Ex11, TP 16.6 μg/mL+Ca+CTI+PKSI-527, heparan sulfate 3 μg/mL, rTM 50 μM (title: 50 nM)
[5] = Ex11, TP 16.6 μg/mL+Ca+CTI+PKSI-527, heparan sulfate 10 μg/mL, no rTM
[6] = Ex11, TP 16.6 μg/mL+Ca+CTI+PKSI-527, heparan sulfate 10 μg/mL, rTM 50 μM (title: 50 nM)
[7] = Ex11, TP 16.6 μg/mL+Ca+CTI+PKSI-527, heparan sulfate 15 μg/mL, no rTM
[8] = Ex11, TP 16.6 μg/mL+Ca+CTI+PKSI-527, heparan sulfate 15 μg/mL, rTM 50 μM (title: 50 nM)
[9] = Ex11, TP 16.6 μg/mL+Ca+CTI+PKSI-527, heparan sulfate 20 μg/mL, no rTM
[10] = Ex11, TP 16.6 μg/mL+Ca+CTI+PKSI-527, heparan sulfate 20 μg/mL, rTM 50 μM (title: 50 nM)
[11] = Ex11, TP 16.6 μg/mL+Ca+CTI+PKSI-527, heparan sulfate 30 μg/mL, no rTM
[12] = Ex11, TP 16.6 μg/mL+Ca+CTI+PKSI-527, heparan sulfate 30 μg/mL, rTM 50 μM (title: 50 nM)
[13] = Ex12, TP 16.6 μg/mL+Ca+CTI+PKSI-527, heparan sulfate 5 μg/mL, no rTM
[14] = Ex12, TP 16.6 μg/mL+Ca+CTI+PKSI-527, heparan sulfate 5 μg/mL, rTM 100 μM (title: 100 nM)
[15] = Ex13, TP 0.033 μg/mL+Ca+CTI+PKSI-527, heparan sulfate 0.5 μg/mL, no rTM
[16] = Ex13, TP 0.033 μg/mL+Ca+CTI+PKSI-527, heparan sulfate 0.5 μg/mL, rTM 9 μM (title: 9 nM)
[17] = Ex14, TP 0.033 μg/mL+Ca+CTI+PKSI-527, heparan sulfate 0.1 μg/mL, no rTM
[18] = Ex14, TP 0.033 μg/mL+Ca+CTI+PKSI-527, heparan sulfate 0.1 μg/mL, rTM 10 nM
[19] = Ex14, TP 0.033 μg/mL+Ca+CTI+PKSI-527, heparan sulfate 0.2 μg/mL, no rTM
[20] = Ex14, TP 0.033 μg/mL+Ca+CTI+PKSI-527, heparan sulfate 0.2 μg/mL, rTM 10 nM
[21] = Ex14, TP 0.033 μg/mL+Ca+CTI+PKSI-527, heparan sulfate 0.3 μg/mL, no rTM
[22] = Ex14, TP 0.033 μg/mL+Ca+CTI+PKSI-527, heparan sulfate 0.3 μg/mL, rTM 10 nM
[23] = Ex14, TP 0.033 μg/mL+Ca+CTI+PKSI-527, heparan sulfate 0.4 μg/mL, no rTM
[24] = Ex14, TP 0.033 μg/mL+Ca+CTI+PKSI-527, heparan sulfate 0.4 μg/mL, rTM 10 nM
[25] = Ex14, TP 0.033 μg/mL+Ca+CTI+PKSI-527, heparan sulfate 0.5 μg/mL, no rTM
[26] = Ex14, TP 0.033 μg/mL+Ca+CTI+PKSI-527, heparan sulfate 0.5 μg/mL, rTM 10 nM
[27] = Ex15, TP 0.033 μg/mL+Ca+CTI+PKSI-527, heparan sulfate 0.1 μg/mL, no rTM
[28] = Ex15, TP 0.033 μg/mL+Ca+CTI+PKSI-527, heparan sulfate 0.1 μg/mL, rTM 5 nM
[29] = Ex15, TP 0.033 μg/mL+Ca+CTI+PKSI-527, heparan sulfate 0.2 μg/mL, no rTM

Heparan sulfate
clotting time (CT) (Ex3/Ex9, TP 0.9 μg/mL+Startem, heparan sulfate 1 μg/mL, rTM 20 nM): 319 s
clotting time (CT) (Ex4, TP 0.9 μg/mL+Ca+CTI+PKSI-527, heparan sulfate 1 μg/mL, no rTM): 162 s
clotting time (CT) (Ex9, TP 0.9 μg/mL+Startem, heparan sulfate 1 μg/mL, no rTM): 154 s
clotting time (CT) (Ex10, TP 0.45 μg/mL+Startem, heparan sulfate 1 μg/mL, no rTM): 251 s
CFT (clot formation time) [1]: 93 s
CT (clotting time) [1]: 58 s
CFT (clot formation time) [2]: 72 s
CT (clotting time) [2]: 55 s
CFT (clot formation time) [3]: 93 s
CT (clotting time) [3]: 62 s
CFT (clot formation time) [4]: 73 s
CT (clotting time) [4]: 62 s
CFT (clot formation time) [5]: 55 s
CT (clotting time) [5]: 94 s
CFT (clot formation time) [6]: 95 s
CT (clotting time) [6]: 143 s
CFT (clot formation time) [7]: 66 s
CT (clotting time) [7]: 120 s
CFT (clot formation time) [8]: 255 s
CT (clotting time) [8]: 255 s
CFT (clot formation time) [9]: 61 s
CT (clotting time) [9]: 144 s
CFT (clot formation time) [10]: No CFT
CT (clotting time) [10]: No CT
CFT (clot formation time) [11]: 69 s
CT (clotting time) [11]: 193 s
CFT (clot formation time) [12]: No CFT
CT (clotting time) [12]: No CT
blood clotting time (Ex11, TP 16.6 μg/mL+Ca+CTI+PKSI-527, heparan sulfate 20 or 30 μg/mL, rTM 50 nM): ≥ 1 h
CFT (clot formation time) [13]: 76 s
CT (clotting time) [13]: 65 s
CFT (clot formation time) [14]: 69 s
CT (clotting time) [14]: 96 s
CFT (clot formation time) [15]: 248 s
CT (clotting time) [15]: 837 s
CFT (clot formation time) [16]: 1484 s
CT (clotting time) [16]: 1355 s
CFT (clot formation time) [17]: 182 s
CT (clotting time) [17]: 572 s
CFT (clot formation time) [18]: 240 s
CT (clotting time) [18]: 797 s
CFT (clot formation time) [19]: 224 s
CT (clotting time) [19]: 686 s
CFT (clot formation time) [20]: 215 s
CT (clotting time) [20]: 829 s
CFT (clot formation time) [21]: 171 s
CT (clotting time) [21]: 688 s
CFT (clot formation time) [22]: 290 s
CT (clotting time) [22]: 802 s
CFT (clot formation time) [23]: 206 s
CT (clotting time) [23]: 762 s
CFT (clot formation time) [24]: 733 s
CT (clotting time) [24]: 1360 s
CFT (clot formation time) [25]: 248 s
CT (clotting time) [25]: 837 s
CFT (clot formation time) [26]: 660 s
CT (clotting time) [26]: 1266 s
CFT (clot formation time) [27]: 182 s
CT (clotting time) [27]: 572 s
CFT (clot formation time) [28]: 230 s
CT (clotting time) [28]: 711 s
CFT (clot formation time) [29]: 224 s
CT (clotting time) [29]: 686 s
CFT (clot formation time) (Ex15, TP 0.033 μg/mL+Ca+CTI+PKSI-527, heparan sulfate 0.2 μg/mL, rTM 5 nM): 209 s
